Experimental data taken from paper PMC6204601, “In Vivo Selectivity and Localization of Reactive Oxygen Species (ROS) Induction by Osmium Anticancer Complexes That Circumvent Platinum Resistance” (Journal of Medicinal Chemistry, 2018).
Read-outs that look alike come from different tables or passages of the source.

Experiments:
[1] = tested on: A549 lung carcinoma cells; assay: Sulforhodamine B antiproliferative assay, A549; type: cell-based, human; details: 24 h drug exposure + 72 h recovery, SRB
[2] = tested on: HCT116 colorectal carcinoma cells; assay: Sulforhodamine B antiproliferative assay, HCT116; type: cell-based, human; details: 24 h drug exposure + 72 h recovery, SRB; read-out: Antiproliferative activity (IC50) HCT116 Colon
[3] = tested on: MRC5 human lung fibroblasts; assay: Sulforhodamine B antiproliferative assay, MRC5; type: cell-based; details: 24 h drug exposure + 72 h recovery, SRB; non-cancer fibroblasts
Protocol: (§1) In vitro biological studies
(§2) Sulforhodamine B cell viability colorimetric assay.
(§3) by ICP-OES analysis for metal content).
(§4) 72 h recovery time (310 K).
(§5) using slowly-running tap water and air dried.
(§6) Data were processed using Microsoft Excel
IC50 values (concentrations at which […]
After this time, cells were […]

[4] = tested on: HOF human ovarian fibroblasts; assay: Sulforhodamine B antiproliferative assay, HOF; type: cell-based; details: 24 h drug exposure + 72 h recovery, SRB; non-cancer fibroblasts
Protocol: as §1, §2, §3, §4, §5, §6

[5] = tested on: HCT116p53-/- P53-knockout colorectal carcinoma cells; assay: Sulforhodamine B antiproliferative assay, HCT116p53-/-; type: cell-based, human; details: 24 h drug exposure + 72 h recovery, SRB, read-out: Antiproliferative activity (IC50) HCT116p53-/- Colon
[6] = tested on: HCT116p21-/- P21-knockout colorectal carcinoma cells; assay: Sulforhodamine B antiproliferative assay, HCT116p21-/-; type: cell-based, human; details: 24 h drug exposure + 72 h recovery, SRB, read-out: Antiproliferative activity (IC50) HCT116p21-/- Colon
[7] = tested on: AB wild-type zebrafish embryos; type: in vivo; details: 96 h exposure, read-out: LC50 (Danio rerio) AB-WT
[8] = tested on: Singapore wild-type zebrafish embryos; type: in vivo, Danio rerio; details: zebrafish embryos, 96 h exposure; read-out: LC50 (Danio rerio) SG-WT
Protocol: In vivo biological studies […]
wild-type zebrafish (SGWT) embryos (< 5 dpf). All animals were maintained in accordance with ASPA […]
maintained. Light cycle: 14 hours day, 10 hours night.
1 L breeding tank. Pairs were set up the previous evening. Males and females were separated by a divider. The divider was removed around 9am (dawn). Embryos were collected and placed into petri dishes with fresh egg water. […]

[9] = tested on: Tubingen wild-type zebrafish embryos; assay: Zebrafish embryo toxicity (FET) test, TU-WT; type: in vivo; details: 96 h exposure, read-out: LC50 (Danio rerio) TU-WT
[10] = tested on: HCT116Ox oxaliplatin-resistant colorectal carcinoma cells; assay: Sulforhodamine B antiproliferative assay, HCT116Ox; type: cell-based, human; details: 24 h drug exposure + 72 h recovery, SRB, read-out: Antiproliferative activity (IC50) HCT116Ox Colon
[11] = tested on: A2780Cis cisplatin-resistant ovarian carcinoma cells; assay: Sulforhodamine B antiproliferative assay, A2780Cis; type: cell-based, human; details: 24 h drug exposure + 72 h recovery, SRB
[12] = tested on: A2780 ovarian carcinoma cells; assay: Sulforhodamine B antiproliferative assay, A2780; type: cell-based, human; details: SRB
[13] = tested on: HOF human ovarian fibroblasts; assay: ROS/superoxide detection by flow cytometry, HOF; details: 24 h, 1.0 × IC50 (pyocyanin positive control 0.1 mM); for % Population Q2 FL1-H+ / FL2-H+: ROS and superoxide; for % Population Q1 FL1-H- / FL2-H+: superoxide only; for % Population Q3 FL1-H+ / FL2-H-: total ROS only
Protocol: (§7) Reactive oxygen species (ROS) determination using flow cytometry. The generation of ROS and
(§8) superoxide in A2780 ovarian cancer cells was evaluated using the ROS/Superoxide detection kit (Enzo
(§9) Life Sciences) following the manufacturer’s protocol.
(§10) cells per well, and incubated for 24 h (310 K). After this time, cells were exposed to equipotent
The pellets were re-suspended in 500
(§11) μL PBS and stained with green fluorescent reagent for total ROS reading in the FL1-green channel (2
(§12) μL) and orange fluorescent reagent for superoxide reading in the FL2-red channel (2 μL). Positive
(§13) control samples were treated with pyocyanin (5 μL, 30 min). Single stained positive control samples
(§14) were used for compensation purposes. Data were obtained using a Becton Dickson FACScan Flow
(§15) Cytometer and processed using FlowJo V10 for Windows.

A2780 cancer cells = assay: ROS/superoxide detection by flow cytometry, A2780; details: A2780, 24 h, 1.0 × IC50 (pyocyanin positive control 0.1 mM); for % Population Q2 FL1-H+ / FL2-H+: ROS and superoxide; for % Population Q1 FL1-H- / FL2-H+: superoxide only; for % Population Q3 FL1-H+ / FL2-H-: total ROS only
Protocol: as §7, §8, §9, §10
The pellets were re-suspended in 500
as §11, §12, §13, §14, §15

[14] = CV vs Ag/AgCl, 100 mV/s, 10^–3 M, CH3CN; electrochemically reversible
[15] = 24 h drug exposure + 72 h recovery in drug-free medium, read-out: Antiproliferative activity (IC50) A2780 Ovarian

Row | Compound | IC50 [1] [µM] | IC50 [2] [µM] | IC50 [3] [µM] | IC50 [4] [µM] | IC50 [5] [µM] | IC50 [6] [µM] | LC50 [7] [µM] | LC50 [8] [µM] | LC50 [9] [µM] | IC50 [10] [µM] | IC50 [11] [µM] | IC50 [12, 15] [nM] | further results
1 | CS(=O)(=O)[N]1[Os][NH][C@H](c2ccccc2)[C@H]1c1ccccc1.Cc1ccc(C(C)C)cc1 [Complex 2, [Os(p-cymene)(Ms-DPEN)]] | 31 ± 1 | 67 ± 1 | 26 ± 0.4 | > 50 | 56 ± 6 | 71 ± 5 | 2.8 ± 0.6 | 3.5 ± 0.4 | 2.8 ± 0.5 | 56 ± 5 | 39.4 ± 0.6 | 30000 ± 2000 | 
2 | Cc1ccc(C(C)C)cc1.[NH-]C(c1ccccc1)C([N-]S(=O)(=O)c1ccc([N+](=O)[O-])cc1)c1ccccc1.[Os+2] (stereo not drawn) [Complex 3, [Os(p-cymene)(Ns-DPEN)]] | 27 ± 2 | 67 ± 1 | 21.9 ± 0.7 | > 50 | 53 ± 3 | 63 ± 4 | 3.9 ± 0.3 | 1.9 ± 0.3 |  | 64 ± 5 | 21.1 ± 0.3 | 19900 ± 500 | 
3 | Cc1ccc(C(C)C)cc1.O=S(=O)(c1ccc(F)cc1)[N]1[Os][NH][C@H](c2ccccc2)[C@H]1c1ccccc1 [Complex 4, [Os(p-cymene)(Fb-DPEN)]] | 31.5 ± 0.4 | 49 ± 3 | 35 ± 1 | 48 ± 3 | 39.4 ± 0.6 | 70 ± 3 | 3 ± 0.5 | 0.7 ± 0.2 | 1.5 ± 0.3 | 54 ± 2 | 15 ± 2 | 17000 ± 1000 | 
4 | Cc1ccc(C(C)C)cc1.O=S(=O)(c1ccccc1)[N]1[Os][NH][C@H](c2ccccc2)[C@H]1c1ccccc1 [Complex 5, [Os(p-cymene)(Bs-DPEN)]] | 26.3 ± 0.5 | 49 ± 6 | 31.3 ± 0.2 | 19.9 ± 0.9 | 48 ± 2 | 54.3 ± 0.9 |  | 0.8 ± 0.2 | 1.5 ± 0.3 | 52 ± 0.8 | 21 ± 1 | 13500 ± 900 | 
5 | Cc1ccc(S(=O)(=O)[N]2[Os][NH][C@H](c3ccccc3)[C@H]2c2ccccc2)cc1.c1ccc(-c2ccccc2)cc1 [Complex 7, [Os(biphenyl)(Ts-DPEN)]] | 22.4 ± 0.7 | 26.1 ± 0.3 | 15.1 ± 0.5 | 44 ± 1 | 40 ± 6 | 90 ± 1 | 3.5 ± 0.8 |  | 3.3 ± 0.4 | 46.2 ± 0.7 | 25.9 ± 0.7 | 6500 ± 300 | 
6 | Cc1ccc(S(=O)(=O)[N]2[Os][NH][C@H](c3ccccc3)[C@H]2c2ccccc2)cc1.c1ccc(-c2cccc(-c3ccccc3)c2)cc1 [Complex 8, [Os(terphenyl)(Ts-DPEN)]] | 25.5 ± 0.3 | 41.2 ± 0.7 | 9.7 ± 0.2 | 24.3 ± 0.4 |  |  |  | 0.7 ± 0.2 |  |  | 10.4 ± 0.5 | 4400 ± 300 | 
7 | CN(C)c1ccc(N=Nc2ccccn2)cc1.Cc1ccc(C(C)C)cc1.F[P-](F)(F)(F)(F)F.[Cl][Os+] [Complex 9, [Os(Azpy-NMe2)(p-cymene)Cl]PF6] | 36.6 ± 0.8 | 21.9 ± 0.7 | 7.1 ± 0.2 | 11.1 ± 0.9 | 3.2 ± 0.3 | 4 ± 0.3 | 14 ± 2 | 13.61 ± 0.09 | 12 ± 1 | 5.8 ± 0.7 | 0.37 ± 0.03 | 1800 ± 100 | % Population Q4 FL1-H- / FL2-H- [13]: 15 ± 1%; % Population Q2 FL1-H+ / FL2-H+ [13]: 13.8 ± 0.1%; % Population Q1 FL1-H- / FL2-H+ [13]: 11.7 ± 0.8%; % Population Q3 FL1-H+ / FL2-H- [13]: 60 ± 2%; % Population Q4 FL1-H- / FL2-H- (A2780 cancer cells): 0 ± 0%; % Population Q2 FL1-H+ / FL2-H+ (A2780 cancer cells): 97.0 ± 0.2%; % Population Q1 FL1-H- / FL2-H+ (A2780 cancer cells): 0 ± 0%; % Population Q3 FL1-H+ / FL2-H- (A2780 cancer cells): 3.0 ± 0.2%
8 | CN(C)c1ccc(N=Nc2ccccn2)cc1.F[P-](F)(F)(F)(F)F.[Cl][Os+].c1ccc(-c2ccccc2)cc1 [Complex 11, [Os(Azpy-NMe2)(biphenyl)Cl]PF6] | 20 ± 1 | 7.2 ± 0.05 | 16.9 ± 0.1 | 27 ± 2 | 28 ± 1 | 67 ± 3 | 12 ± 1 | 16.8 ± 0.8 | 15.8 ± 0.9 | 10 ± 0.9 | 16.8 ± 0.2 | 3900 ± 300 | 
9 | CN(C)c1ccc(N=Nc2ccccn2)cc1.F[P-](F)(F)(F)(F)F.[I][Os+].c1ccc(-c2ccccc2)cc1 [Complex 12, [Os(Azpy-NMe2)(biphenyl)I]PF6] | 0.27 ± 0.03 | 0.82 ± 0.09 | 0.42 ± 0.03 | 0.35 ± 0.02 | 0.39 ± 0.02 | 0.33 ± 0.02 | 7.7 ± 0.1 | 6.6 ± 0.4 | 6.5 ± 0.8 | 0.33 ± 0.05 | 0.11 ± 0.01 | 140 ± 10 | First reduction step potential [14]: ca. −0.4 V
10 | F[P-](F)(F)(F)(F)F.Oc1ccc(N=Nc2ccccn2)cc1.[I][Os+].c1ccc(-c2ccccc2)cc1 [Complex 13, [Os(Azpy-OH)(biphenyl)I]PF6] | 0.52 ± 0.06 | 0.15 ± 0.01 | 0.22 ± 0.01 | 0.32 ± 0.09 | 0.13 ± 0.01 | 0.3 ± 0.01 | 7.4 ± 0.2 | 8 ± 0.1 | 7.2 ± 0.2 | 0.14 ± 0.01 | 0.13 ± 0.02 |  | IC50 ([12]; 24 h drug exposure + 72 h recovery, value in nM, read-out: IC50 in A2780): 140 nM
11 | Cn1c2cccc(=O)c-2nc2ccccc21 [Pyocyanin, pyocyanin, reference compound] |  |  |  |  |  |  |  |  |  |  |  |  | % Population Q4 FL1-H- / FL2-H- [13]: 1.2 ± 0.5%; % Population Q2 FL1-H+ / FL2-H+ [13]: 90 ± 2%; % Population Q1 FL1-H- / FL2-H+ [13]: 8 ± 2%; % Population Q3 FL1-H+ / FL2-H- [13]: 1.2 ± 0.2%; % Population Q4 FL1-H- / FL2-H- (A2780 cancer cells): 0.02 ± 0.01%; % Population Q2 FL1-H+ / FL2-H+ (A2780 cancer cells): 99 ± 2%; % Population Q1 FL1-H- / FL2-H+ (A2780 cancer cells): 0.03 ± 0.02%; % Population Q3 FL1-H+ / FL2-H- (A2780 cancer cells): 0.00 ± 0.01%
12 | N.N.O=C([O-])C1(C(=O)[O-])CCC1.[Pt+2] [carboplatin, reference compound] |  |  |  |  |  |  | 10 ± 1 | 5.7 ± 0.9 | 7.1 ± 0.7 |  |  |  | 
13 | N.N.[Cl][Pt][Cl] [cisplatin, reference compound] | 3.2 ± 0.1 | 5.1 ± 0.3 | 13.5 ± 0.9 |  | 36.7 | 9.2 ± 0.5 |  |  |  | 23.4 ± 0.4 | 11.5 ± 0.2 | 1200 | 
14 | [Os(p-cymene)(SRB-DPEN)] [Complex 6] | 16.8 ± 0.2 | 40.6 ± 0.1 |  |  | 34 ± 3 | 43 ± 3 |  |  |  | 35 ± 1 | 27.2 ± 0.4 | 18000 ± 3000 | 
